Consider one molecule from US20060258745A1, “Deramciclane-fumarate tablets” (EGIS GYOGYSZERGYAR RT., priority 2003, published 2006).

A value given as a limit tells only on which side of the number the result lay.

Data set [1] is described as follows: Crushing strength of compressed pure deramciclane-fumarate powder. Format: physicochemical. The conditions noted are these: 300 mg powder, die cavity of 10 mm diameter, eccentric press, compression force 5-40 kN. An excerpt: Due to the weak cohesion characteristics of deramciclane-fumarate on compression of the particles of the active ingredient acceptable tablet strength can not be obtained.

Data set [2] in a line: Water solubility. Format: physicochemical.

`CN(C)CCOC1(c2ccccc2)CC2CCC1(C)C2(C)C.O=C(O)/C=C/C(=O)O` [deramciclane-fumarate, (1R,2S,4R)-(−)-2-dimethylaminoethoxy-2-phenyl-1,7,7-trimethyl-bicyclo[2.2.1]heptane-2-(E)-butenedioate (1:1)]: the “crushing strength of the tablets” value in data set [1] is no more than 10 N. In addition, the water solubility result in data set [2] was “low water solubility”.
